According to US8188059B2, “Compounds and methods for modulating expression of GCGR” (Isis Pharmaceuticals, Inc., priority 2006, dated 2012):
Strand notation (5' to 3'): a small letter for the sugar, then the base; units joined by * are phosphorothioate-linked, units joined directly phosphodiester-linked; [ ] holds rarer units or linkages, { } end groups; capitals alone tell only the bases. [PALM-N] = nucleoside bearing a 2'-(butylacetamido)-palmitamide (C16 palmitic acid) substituent (N: the base); e = 2'-O-(2-methoxyethyl) (MOE); l = locked nucleic acid (LNA); k = constrained ethyl (cEt); [5mC] = 5-methylcytosine; d = 2'-deoxy (DNA)

How the values were obtained:
mouse SGLT2 mRNA [1] = experiment: Mouse SGLT2 mRNA levels in kidney, MOE versus Methyleneoxy BNA gapmers, Balb/c mice (Example 15, Table 69); format: in vivo
Experimental: The effect of ISIS 379692 1-10-1 MOE gapmer and ISIS 388625 2-8-2 MOE gapmer are compared with the effect of ISIS 392170 1-10-1 Methyleneoxy BNA Gapmer and ISIS 392173 2-8-2 Methyleneoxy BNA Gapmer (see Table 69) on mouse SGLT2 mRNA levels in vivo. Data are taken from three experiments in which male 6-week old Balb/c mice were dosed twice per week for three weeks with 5, 25 and 125 nmol/kg of either the ISIS 379692 1-10-1 MOE gapmer or the ISIS 388625 2-8-2 MOE gapmer given by intraperitoneal injection. Mice were sacrificed 48 hours following last administration and evaluated for SGLT2 mRNA levels in kidney. Target levels were determined by RT, real-time PCR as described by other examples herein. PCR results were normalized to an internal ISIS control. The data are expressed as percent change (“+” indicates an increase, “−” indicates a decrease) relative to saline treated animals and are illustrated in Table 69.

[2] = HbA1c status in ZDF rats (Example 16, Table 72); format: in vivo, rat; details: compared to PBS and control treated animals
Experimental: (§1) ISIS 388625, 388626 and control oligo ISIS 388628 were analyzed for their effect on ZDF rat plasma glucose levels and HbA1c. The leptin receptor deficient Zucker diabetic fatty (ZDF) rat is a useful model for the investigation of type 2 diabetes. Diabetes develops spontaneously in these male rats at ages 8-10 weeks, and is associated with hyperphagia, polyuria, polydipsia, and impaired weight gain, symptoms which parallel the clinical symptoms of diabetes (Phillips M S, et al., 1996, Nat Genet. 13, 18-19). Six week old ZDF rats were injected intraperitoneally with short antisense compound at a dose of 400 nM/kg once a week for twelve weeks. Data are illustrated in Tables 71 and 72.

mouse SGLT2 mRNA [3] = experiment: Mouse SGLT2 mRNA levels in kidney, additional 1-10-1 and 2-8-2 MOE gapmers, Balb/c mice (Example 15, Table 68); format: in vivo
rat SGLT2 mRNA = experiment: Rat SGLT2 mRNA levels in kidney, ISIS 379692 and ISIS 388625, Sprague-Dawley rats (Example 15, Table 70); format: in vivo; details: i.p. twice per week for three weeks
Experimental: The effect of ISIS 379692 1-10-1 MOE gapmer and ISIS 388625 MOE 2-8-2 gapmer (see Table 70) on rat SGLT2 mRNA levels in vivo. […] Rats were sacrificed 48 hours following last administration and evaluated for SGLT2 levels in kidney. Target levels were determined by RT, real-time PCR as described by other examples herein. PCR results were normalized to an internal ISIS control.

dog SGLT2 mRNA = experiment: Dog SGLT2 mRNA levels in kidney, beagle dogs, subcutaneous (Example 17, Table 73); format: in vivo; details: for % change in SGLT2 expression relative to saline: subcutaneous twice weekly, day 46
Experimental: ISIS 388625 is a 2-8-2 MOE Gapmer with sequence […] (SEQ ID NO: 246) (e.g. see Table 71). The effect of ISIS 388625 on dog SGLT2 mRNA levels. Data are taken from two dosing groups in which a total of nine male beagle dogs were dosed with either one or ten mg/kg/week of ISIS or saline given by subcutaneous injection twice weekly. On day 46 of the study all dogs were sacrificed and evaluated for SGLT2 levels in kidney. Target levels were determined by quantitative RT, real-time PCR as described by other examples herein. PCR results were normalized to an internal ISIS control.

[4] = Standard glucose tolerance test and urinary glucose excretion in dog (Example 17); format: in vivo
Description: Even greater reduction can be achieved at slightly higher doses. […] Peak plasma glucose levels were decreased by over 50% on average and the subsequent drop in glucose was lessened compared to saline controls in a standard glucose tolerance test.

[5] = Plasma glucose in ZDF rats, once a week for twelve weeks (Example 16, Table 71); format: in vivo, rat; details: compared to PBS and control treated animals
Experimental: as §1

ApoB mRNA [6] = experiment: ApoB mRNA in liver of Balb/c mice, single i.p. dose 8, 4, 2 or 1 μmol/kg, with ED50 (Example 28, Table 92); format: in vivo, mouse; details: Balb/c mice, relative to saline
Experimental: (§2) The short antisense compounds tested were ISIS 387462 and ISIS 398296. Each dose group consisted of four animals. A 5-10-5 MOE gapmer was used for a control treatment. Mice were sacrificed approximately 48 hours following the final dose. Liver tissue was collected for RNA isolation, and blood was collected for serum chemistry analyses. ApoB mRNA levels were measured by real-time PCR as described herein. ApoB mRNA levels were normalized to RNA levels as determined by RIBOGREEN, and are presented in Table 92 as percent inhibition relative to ApoB mRNA levels in saline-treated control animals.
At the 8 umol/kg dose, ApoB inhibition by the short antisense compounds was greater than observed with a 5-10-5 MOE gapmer at an equivalent dose. […] Triglycerides were reduced at the highest dose.

ApoB mRNA [7] = experiment: ApoB mRNA in liver of Balb/c mice, BNA short antisense compounds, i.p. twice per week for three weeks (Example 26, Table 89); format: in vivo, mouse; details: relative to saline
Experimental: as §2, with “compounds shown in Table 88 were” for “compounds”, “for their effects in vivo. […]” for “were ISIS 387462 and ISIS 398296. Each dose group consisted of four animals.”, “89” for “92”

PTP1B mRNA [8] = experiment: Antisense inhibition of human PTP1B in HepG2 cells at 25 nM (Example 24, Table 85); format: cell-based
Experimental: Short antisense compounds targeted to a PTP1B nucleic acid were tested for their effects on PTP1B mRNA in vitro. Cultured HepG2 cells at a density of 10000 cells per well in a 96-well plate were treated with 25 nM of antisense oligonucleotide. After the treatment period, RNA was isolated from the cells and PTP1B mRNA levels were measured by quantitative real-time PCR, as described herein. PTP1B mRNA levels were adjusted according to total RNA content as measured by RIBOGREEN®. Results are presented as percent inhibition (% Ihib) of PTP1B, relative to untreated control cells.

PTP1B mRNA [9] = experiment: Dose response for human PTP1B in HuVEC cells, Primer Probe Set 198 (Example 25, Table 86); format: cell-based
Experimental: (§3) Human vascular endothelial (HuVEC) cells were plated at a density of 5000 cells per well and treated as described herein with nM concentrations of short antisense compound as indicated in Table 86. After the treatment period, RNA was isolated from the cells and PTP1B mRNA levels were measured by quantitative real-time PCR, as described herein. PTP1B mRNA levels were adjusted according to total RNA content as measured by RIBOGREEN®. Two different human PTP1B primer probe sets were used to measure mRNA levels. Results with Primer Probe Set (PPS) 198 are shown in Table 86, and results with Primer Probe Set (PPS) 3000 are shown in Table 87. Results are presented as percent inhibition of PTP1B mRNA expression relative to untreated control cells.

PTP1B mRNA [10] = experiment: Antisense inhibition of human PTP1B in HuVEC cells at 3 nM (Example 23, Table 84); format: cell-based
Experimental: Short antisense compounds targeted to a PTP1B nucleic acid were tested for their effects on PTP1B mRNA in vitro. Cultured HuVEC cells at a density of 5000 cells per well in a 96-well plate were treated as described herein with 3 nM of short antisense compound. After the treatment period, RNA was isolated from the cells and PTP1B mRNA levels were measured by quantitative real-time PCR, as described herein. PTP1B mRNA levels were adjusted according to total RNA content as measured by RIBOGREEN®. Results are presented as percent inhibition of PTP1B (% Inhib), relative to untreated control cells.

PTP1B mRNA [11] = experiment: Dose response for human PTP1B in HuVEC cells, Primer Probe Set 3000 (Example 25, Table 87); format: cell-based
Experimental: as §3

ApoB mRNA [12] = experiment: ApoB mRNA in liver of Balb/c mice, palmitic acid conjugates, single i.p. dose, with ED50 (Example 30, Table 95); format: in vivo, mouse; details: single i.p. injection
Experimental: as §2, with “0.4,” for “The short antisense compounds tested were ISIS 387462”, “0.16 umol/kg.” for “ISIS 398296.”, “95” for “92”
(§4) At the 2.5 umol/kg dose, ApoB inhibition by the short antisense compounds was greater than observed with a 5-10-5 MOE gapmer at an equivalent dose. […] Triglycerides were reduced at the 2.5 and […] doses of ISIS 387462 and ISIS 391872.

[13] = Triglycerides, total cholesterol, HDL-C, LDL-C and adverse effects (Example 30); format: in vivo, mouse
Experimental: as §2, with “0.4,” for “The short antisense compounds tested were ISIS 387462”, “0.16 umol/kg.” for “ISIS 398296.”, “95” for “92”
as §4

[14] = 0.1 umol/kg i.p. twice per week for three weeks

## ISIS 388625: SGLT2; TGTTCCAGCCCA 2-8-2 MOE Gapmer (antisense eT*eG*dT*dT*d[5mC]*d[5mC]*dA*dG*d[5mC]*d[5mC]*e[5mC]*eA)
Mouse SGLT2 mRNA [1]; 5 nmol/kg i.p. twice per week for three weeks
  SGLT2 mRNA, percent change relative to saline treated animals: −18 percent change
Mouse SGLT2 mRNA [1]; 25 nmol/kg i.p. twice per week for three weeks
  SGLT2 mRNA, percent change relative to saline treated animals: −47 percent change
Mouse SGLT2 mRNA [1]; 125 nmol/kg i.p. twice per week for three weeks
  SGLT2 mRNA, percent change relative to saline treated animals: −70 percent change
[2]
  HbA1C: significantly reduced
Mouse SGLT2 mRNA [3]; 0.02 umol/kg i.p. twice per week for three weeks
  % change in SGLT2 expression relative to saline: −65%
Mouse SGLT2 mRNA [3]; [14]
  % change in SGLT2 expression relative to saline: −88%
Mouse SGLT2 mRNA [3]; 0.5 umol/kg i.p. twice per week for three weeks
  % change in SGLT2 expression relative to saline: −90%
Rat SGLT2 mRNA; dose 3.125 umol/kg (head)
  % change in SGLT2 expression relative to saline: +25%
Rat SGLT2 mRNA; dose 12.5 umol/kg (head)
  % change in SGLT2 expression relative to saline: −15%
Rat SGLT2 mRNA; dose 50 umol/kg (head)
  % change in SGLT2 expression relative to saline: −65%
Rat SGLT2 mRNA; dose 200 umol/kg (head)
  % change in SGLT2 expression relative to saline: −80%
Dog SGLT2 mRNA; 1 mg/kg/wk dose
  reduction of SGLT2 mRNA / inhibition of the expression of SGLT2: greater than 80%
Dog SGLT2 mRNA; 1 mg/kg/wk
  % change in SGLT2 expression relative to saline: −85%
Dog SGLT2 mRNA; 10 mg/kg/wk
  % change in SGLT2 expression relative to saline: −95%
[4]
  Urinary glucose excretion: increased
  glucose tolerance: improved glucose tolerance
[4]; standard glucose tolerance test, compared to saline controls
  Peak plasma glucose levels decreased, on average: over 50%
[5]
  Plasma glucose levels: significantly reduced

## 398296 (antisense kG*kG*dT*dA*dC*dA*dT*dG*dG*dA*dA*dG*kT*kC) [compound 398296]
ApoB mRNA [6]; single i.p. dose 1 umol/kg
  % Inhib (ApoB mRNA in liver): 19%
ApoB mRNA [6]; single i.p. dose 2 umol/kg
  % Inhib (ApoB mRNA in liver): 54%
ApoB mRNA [6]; single i.p. dose 4 umol/kg
  % Inhib (ApoB mRNA in liver): 81%
ApoB mRNA [6]; single i.p. dose 8 umol/kg
  % Inhib (ApoB mRNA in liver): 97%
ApoB mRNA [7]; [14]
  % Inhib (ApoB mRNA in liver): 17%
ApoB mRNA [7]; 0.32 umol/kg i.p. twice per week for three weeks
  % Inhib (ApoB mRNA in liver): 35%
ApoB mRNA [7]; 1 umol/kg i.p. twice per week for three weeks
  % Inhib (ApoB mRNA in liver): 80%
ApoB mRNA [7]; 3.2 umol/kg i.p. twice per week for three weeks
  % Inhib (ApoB mRNA in liver): 98%

## 399301 (antisense eG*eT*dG*dT*dG*d[5mC]*dA*d[5mC]*dA*d[5mC]*dA*dG*e[5mC]*eT) [compound 399301]
PTP1B mRNA [8]
  % Inhib (PTP1B mRNA): 43%
PTP1B mRNA [9]; PPS 198, 1.11 nM
  % Inhibition of PTP1B mRNA: 8%
PTP1B mRNA [9]; PPS 198, 3.33 nM
  % Inhibition of PTP1B mRNA: 63%
PTP1B mRNA [9]; PPS 198, 10.0 nM
  % Inhibition of PTP1B mRNA: 91%
PTP1B mRNA [9]; PPS 198, 30.0 nM
  % Inhibition of PTP1B mRNA: 97%
PTP1B mRNA [10]
  % Inhib (PTP1B mRNA): 55%
PTP1B mRNA [11]; PPS 3000, 1.11 nM
  % Inhibition of PTP1B mRNA: 16%
PTP1B mRNA [11]; PPS 3000, 3.33 nM
  % Inhibition of PTP1B mRNA: 65%
PTP1B mRNA [11]; PPS 3000, 10.0 nM
  % Inhibition of PTP1B mRNA: 93%
PTP1B mRNA [11]; PPS 3000, 30.0 nM
  % Inhibition of PTP1B mRNA: 99%

## ISIS 391872: ApoB; GGTACATGGAAGTC 1-1-10-2 2′-(butylacetomido)-palmitamide Methyleneoxy BNA/Methyleneoxy BNA Unmodified cytosines in gap (antisense [PALM-G]*lG*dT*dA*dC*dA*dT*dG*dG*dA*dA*dG*lT*l[5mC])
ApoB mRNA [12]
  estimated ED50: 1.9 mg/kg
[13]; Example 30
  LDL-C: fell below the limit of detection
[13]; at the 2.5 and 1.0 mg/kg doses (so in the source)
  Triglycerides: reduced
[13]; dose-dependent manner
  total cholesterol, HDL-C and LDL-C: markedly reduced
